How the values were obtained:
Assay in all cases: area over the GR curve, 72 h; higher = more effect;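 note: Dye Drop or Deep Dye Drop imaging of viable cells in 384-well plates (Hoechst nuclei, LIVE/DEAD dye), nine half-log doses, GR normalized to DMSO controls and time-zero plates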
[1] = test system: HCC1419
[2] = test system: SKBR3
[3] = test system: SUM185PE
[4] = test system: BT20
[5] = test system: SUM52PE
[6] = test system: ZR7530
[7] = test system: HCC1395
[8] = test system: MDAMB330
[9] = test system: MDAMB361
[10] = test system: UACC893
[11] = test system: HCC202
[12] = test system: AU565
[13] = test system: HCC1937

Row | SMILES | area over the GR curve [1] | area over the GR curve [2] | area over the GR curve [3] | area over the GR curve [4] | area over the GR curve [5] | area over the GR curve [6] | area over the GR curve [7] | area over the GR curve [8] | area over the GR curve [9] | area over the GR curve [10] | area over the GR curve [11] | area over the GR curve [12] | area over the GR curve [13]
1 | CO[C@H]1C[C@@H]2CC[C@@H](C)[C@@](O)(O2)C(=O)C(=O)N2CCCC[C@H]2C(=O)O[C@H]([C@H](C)C[C@@H]2CC[C@@H](OCCO)[C@H](OC)C2)CC(=O)[C@H](C)/C=C(\C)[C@@H](O)[C@@H](OC)C(=O)[C@H](C)C[C@H](C)/C=C/C=C/C=C/1C [Everolimus] (max 10 µM) | 0.724 GR | 0.794 GR | 0.2 GR | 0.593 GR | 0.408 GR | 0.598 GR | 0.555 GR | 1.28 GR | 0.85 GR | 0.714 GR | 0.499 GR | 0.553 GR | 0.335 GR
2 | CCC(=O)Nc1ccc(C(=O)Nc2ccc(Nc3ncc4c(n3)N(C)c3ccc(C)cc3C(=O)N4C)cc2)cc1 [FMF-03-145-1] | 0.261 GR | 0.464 GR | 0.384 GR | 1.2 GR | 0.91 GR | 0.918 GR | 0.52 GR | 0.814 GR | 0.323 GR | 0.869 GR | 0.602 GR | 0.501 GR | 0.464 GR
3 | COc1cc(N2CCN(C)CC2)ccc1Nc1ncc2c(n1)N(C)c1ccccc1C(=O)N2CC(F)(F)F [FMF-03-146-1] | 0.0393 GR | 0.0465 GR | 0.0495 GR | 0.0278 GR | -0.0411 GR | 0.0601 GR | 0.163 GR | 0.0128 GR | 0.126 GR | -0.0085 GR | 0.0146 GR | 0.0771 GR | 0.0547 GR
4 | CN1CC[C@H](c2c(O)cc(O)c3c(=O)cc(-c4ccccc4Cl)oc23)[C@H](O)C1 [Flavopiridol] (max 1 µM) | 0.225 GR | 0.342 GR | 0.308 GR | 0.334 GR | 0.215 GR | 0.236 GR | 0.339 GR | 0.285 GR | 0.397 GR | 0.321 GR | 0.273 GR | 0.368 GR | 0.238 GR
5 | CC(C)n1nc(-c2ccc3oc(N)nc3c2)c2c(N)ncnc21 [INK128/MLN0128] (max 3.162 µM) | 0.763 GR | 0.971 GR | 0.609 GR | 0.568 GR | 0.572 GR | 0.533 GR | 0.557 GR | 1.08 GR | 1.1 GR | 0.745 GR | 0.581 GR | 0.791 GR | 0.369 GR
6 | CC(C)NC[C@@H](C(=O)N1CCN(c2ncnc3c2[C@H](C)C[C@H]3O)CC1)c1ccc(Cl)cc1 [Ipatasertib/GDC0068] (max 10 µM) | 0.0911 GR | 0.152 GR | 0.155 GR | 0.311 GR | 0.0168 GR | 0.124 GR | 0.278 GR | 0.421 GR | 0.453 GR | 0.529 GR | 0.169 GR | 0.147 GR | 0.156 GR
7 | CN(C)C(=O)c1cc2cnc(Nc3ccc(N4CCNCC4)cn3)nc2n1C1CCCC1 [LEE011/Ribociclib] (max 10 µM) | 0.293 GR | 0.34 GR | 0.101 GR | 0.433 GR | 0.215 GR | 0.398 GR | 0.323 GR | 0.824 GR | 0.784 GR | 0.53 GR | 0.11 GR | 0.403 GR | 0.0156 GR
8 | CCNC(=O)c1noc(-c2cc(C(C)C)c(O)cc2O)c1-c1ccc(CN2CCOCC2)cc1 [Luminespib/NVP-AUY922] (max 1 µM) | 0.641 GR | 0.714 GR | 0.673 GR | 0.559 GR | 0.6 GR | 0.536 GR | 0.617 GR | 0.887 GR | 0.978 GR | 1.07 GR | 0.431 GR | 0.689 GR | 0.548 GR
9 | CCOc1cc2ncc(C#N)c(Nc3ccc(OCc4ccccn4)c(Cl)c3)c2cc1NC(=O)/C=C/CN(C)C [Neratinib/HKI272] (max 3.162 µM) | 0.993 GR | 0.891 GR | 0.255 GR | 0.147 GR | 0.0354 GR | 1.08 GR | 0.142 GR | 1.18 GR | 0.425 GR | 1.17 GR | 0.453 GR | 1.15 GR | 0.171 GR
10 | O=C(c1cc(Cc2n[nH]c(=O)c3ccccc23)ccc1F)N1CCN(C(=O)C2CC2)CC1 [Olaparib/AZD2281] (max 10 µM) | 0.018 GR | 0.04 GR | -0.0156 GR | 0.0657 GR | -0.0471 GR | 0.0601 GR | 0.253 GR | 0.0605 GR | 0.0967 GR | 0.0342 GR | 0.127 GR | 0.0653 GR | 0.0584 GR
11 | CC(=O)O[C@H]1C(=O)[C@@]2(C)[C@H]([C@H](OC(=O)c3ccccc3)[C@]3(O)C[C@H](OC(=O)[C@H](O)[C@@H](NC(=O)c4ccccc4)c4ccccc4)C(C)=C1C3(C)C)[C@]1(OC(C)=O)CO[C@@H]1C[C@@H]2O [Paclitaxel] (max 1 µM) | 0.47 GR | 0.89 GR | 0.479 GR | 0.985 GR | 0.898 GR | 0.868 GR | 0.839 GR | 0.846 GR | 0.974 GR | 0.905 GR | 0.552 GR | 0.994 GR | 0.658 GR
12 | CS(=O)(=O)N1CCN(Cc2cc3nc(-c4cccc5[nH]ncc45)nc(N4CCOCC4)c3s2)CC1 [Pictilisib/GDC0941] (max 10 µM) | 0.512 GR | 0.512 GR | 0.458 GR | 0.296 GR | 0.364 GR | 0.465 GR | 0.226 GR | 0.53 GR | 0.716 GR | 0.323 GR | 0.431 GR | 0.646 GR | 0.211 GR
13 | O=C1NC(=NCc2cccs2)SC1=Cc1ccc2ncccc2c1 [R0-3306] (max 10 µM) | -0.0238 GR | 0.163 GR | 0.0686 GR | 0.109 GR | 0.0606 GR | 0.113 GR | 0.418 GR | 0.0605 GR | 0.0965 GR | 0.0158 GR | 0.14 GR | 0.406 GR | 0.143 GR
14 | CNCc1ccc(-c2[nH]c3cc(F)cc4c3c2CCNC4=O)cc1 [Rucaparib] (max 10 µM) | 0.0527 GR | 0.119 GR | 0.108 GR | 0.0785 GR | 0.0094 GR | 0.25 GR | 0.385 GR | 0.107 GR | 0.336 GR | 0.164 GR | 0.207 GR | 0.0692 GR | 0.0989 GR
15 | CC1(N)CCN(c2cnc(-c3cccc(Cl)c3Cl)c(N)n2)CC1 [SHP099] (max 10 µM) | 0.0437 GR | 0.0253 GR | 0.176 GR | 0.0072 GR | -0.0423 GR | -0.0067 GR | 0.0738 GR | 0.121 GR | 0.13 GR | -0.0199 GR | 0.051 GR | 0.0263 GR | 0.0653 GR
16 | CN1CCN(CCOc2cc(OC3CCOCC3)c3c(Nc4c(Cl)ccc5c4OCO5)ncnc3c2)CC1 [Saracatinib/AZD0530] (max 10 µM) | 0.264 GR | -0.0324 GR | 0.279 GR | 0.159 GR | 0.0817 GR | 0.399 GR | 0.111 GR | 0.303 GR | 0.406 GR | 0.11 GR | 0.396 GR | 0.119 GR | 0.039 GR
17 | Cc1cc(C(C)Nc2ccccc2)c2nc(N3CCOCC3)cc(=O)n2c1 (centres undefined) [TGX221] (max 10 µM) | -0.0488 GR | -0.0125 GR | 0.163 GR | -0.0612 GR | 0.0531 GR | -0.0239 GR | 0.0832 GR | -0.0042 GR | -0.0911 GR | -0.111 GR | -0.0253 GR | 0.103 GR | 0.0193 GR
18 | CN(C)C/C=C/C(=O)Nc1ccc(C(=O)Nc2cccc(Nc3ncc(Cl)c(-c4c[nH]c5ccccc45)n3)c2)cc1 [THZ1] (max 1 µM) | 0.369 GR | 0.673 GR | 0.484 GR | 0.108 GR | 0.527 GR | 0.561 GR | 0.609 GR | 0.86 GR | 0.746 GR | 0.542 GR | 0.42 GR | 0.607 GR | 0.348 GR
19 | CN(C)C/C=C/C(=O)Nc1ccc(C(=O)N2CCC[C@@H](Nc3ncc(Cl)c(-c4c[nH]c5ccccc45)n3)C2)cc1 [THZ531] (max 1 µM) | 0.21 GR | 0.545 GR | 0.231 GR | 0.0416 GR | 0.222 GR | 0.472 GR | 0.37 GR | 0.747 GR | 0.682 GR | 0.437 GR | 0.3 GR | 0.42 GR | 0.176 GR
20 | CN(C)C/C=C/C(=O)Nc1ccc(C(=O)Nc2cccc(Nc3cc(-c4c[nH]c5ccccc45)ncn3)c2)cc1 [THZ-P1-2] (max 10 µM) | 0.019 GR | 0.154 GR | 0.14 GR | 0.137 GR | 0.129 GR | 0.474 GR | 0.442 GR | 0.592 GR | 0.789 GR | 0.573 GR | 0.0733 GR | 0.194 GR | 0.288 GR
21 | Cc1nc(-c2cn3c(n2)-c2ccc(-c4cnn(C(C)(C)C(N)=O)c4)cc2OCC3)n(C(C)C)n1 [Taselisib/GDC0032] (max 10 µM) | 0.852 GR | 0.807 GR | 0.879 GR | 0.736 GR | 0.647 GR | 0.798 GR | 0.208 GR | 1.15 GR | 1.41 GR | 1.43 GR | 0.791 GR | 0.97 GR | 0.277 GR
22 | O=C1NC(=O)[C@@H](c2cn3c4c(cccc24)CCC3)[C@@H]1c1c[nH]c2ccccc12 [Tivantinib/ARQ197] (max 10 µM) | 0.238 GR | 0.479 GR | 0.239 GR | 0.416 GR | 0.411 GR | 0.457 GR | 0.372 GR | 0.368 GR | 0.514 GR | 0.405 GR | 0.277 GR | 0.577 GR | 0.29 GR
23 | Nc1ccc(-c2ccc3ncc4ccc(=O)n(-c5cccc(C(F)(F)F)c5)c4c3c2)cn1 [Torin2] (max 1 µM) | 0.634 GR | 0.734 GR | 0.473 GR | 0.536 GR | 0.533 GR | 0.346 GR | 0.441 GR | 0.879 GR | 0.869 GR | 0.698 GR | 0.473 GR | 0.657 GR | 0.291 GR
